Reference: patent publication US20120190690A1, “E[…] THE TREATMENT OF WEIGHT DISORDERS” (MERZ PHARMA GmbH & CO. KGaA, priority 2009, published 2012)
Entries after “also recorded” stand apart in the source; their conditions may differ.

Key:
5-HT1b receptor = settings: Schipper et al. 1990; cited from earlier work
[1] = test system: 6-OHDA-lesioned rat model of Parkinson's disease; assay: L-DOPA induced dyskinesia (AIM scores) in unilaterally 6-OHDA-lesioned rats; type: in vivo; settings: eltoprazine hydrochloride 0.08, 0.3, 1.25 and 5 mg/kg s.c. 30 min before test; after 21 days L-DOPA 6 mg/kg + benserazide 15 mg/kg i.p.; FIG. 2
Description: (§1) Male Sprague Dawley rats (Elevage Janvier, Le Genest Saint Isle, France) weighing between 220 and 250 g at the beginning of the study are used in these experiments. They are housed under a 12 h light/dark cycle with free access to standard pelleted food and tap water. Animal treatment and experimental procedures are approved by local ethical committees (Regierungspräsidium Darmstadt; Germany).
(§2) Dopamine-denervating lesions are performed on rats anaesthetized with a 5:1 mixture of ketamine and xylazine (1 ml/kg, i.p.). […] The animals' turning behaviour is recorded in an automated rotometer (TSE Rotameter System, TSE-Systems GmbH, Bad Homburg, Germany) over a 90 min period after the intraperitoneal (i.p.) injection of 2.5 mg/kg dexamphetamine sulphate dissolved in saline. […]
In order to evaluate the severity of LID, AIMs are recorded every second day as described by Cenci et al. (1998). […] Each rat is scored on a severity scale from 0 to 4 based on its frequency and persistence (1=occasional; 2=frequent; 3=continuous but interrupted by sensory distraction; 4=continuous, severe and not interrupted by sensory distraction). […]

[2] = test system: 5-HT2c (initially designated 5-HT1c); settings: Schipper et al. 1990; cited from earlier work
[3] = Plasma levels in the rat weight study; type: in vivo; settings: N=8
Description: (§3) Eltoprazine hydrochloride was dissolved in sterile water. Animals were treated for 2 weeks using Alzet osmotic pumps (2ML2) implanted under the skin on the back delivering constantly eltoprazine solution or using b.i.d. s.c. Treatment. During the treatment, the rats were kept in single cages.
(§4) Group 1: vehicle (osmotic pump; saline) Group 2: eltoprazine 8 mg/kg/day (osmotic pump; in distilled water) Group 3: vehicle (2 daily injections—9 am & 3 pm—s.c.; in distilled water) Group 4: eltoprazine 1 mg/kg (2 daily injections—9 am & 3 pm—s.c.; in distilled water)

[4] = test system: 6-OHDA-lesioned rat model of Parkinson's disease; assay: Turning behaviour induced by high dose of L-DOPA in 6-OHDA-lesioned rats; type: in vivo; settings: eltoprazine 0.3, 1.25 and 5 mg/kg 30 min before test; 180 min rotometer; FIG. 3
Description: as §1, §2
In order to evaluate the effect of eltoprazine on parkinsonian symptoms and its interaction with L-DOPA, rotational behaviour is evaluated. The numbers of ipsilateral and contralateral turns are recorded in an automated rotometer (TSE Rotameter System, TSE-Systems GmbH, Bad Homburg, Germany) over a period of 180 min. […]

5-HT1a receptor = settings: Schipper et al. 1990; cited from earlier work
[5] = biological target: T1, human serotonin 5-HT1b receptor (Homo sapiens, UniProt P28222); assay: GTPγS assay, recombinant CHO-K1 membranes, agonist testing; type: biochemical; settings: human recombinant cell line; FIG. 1
T1 construct: expressed in transfected cells; host or cells: CHO-K1
T1 sequence (P28222 whole entry): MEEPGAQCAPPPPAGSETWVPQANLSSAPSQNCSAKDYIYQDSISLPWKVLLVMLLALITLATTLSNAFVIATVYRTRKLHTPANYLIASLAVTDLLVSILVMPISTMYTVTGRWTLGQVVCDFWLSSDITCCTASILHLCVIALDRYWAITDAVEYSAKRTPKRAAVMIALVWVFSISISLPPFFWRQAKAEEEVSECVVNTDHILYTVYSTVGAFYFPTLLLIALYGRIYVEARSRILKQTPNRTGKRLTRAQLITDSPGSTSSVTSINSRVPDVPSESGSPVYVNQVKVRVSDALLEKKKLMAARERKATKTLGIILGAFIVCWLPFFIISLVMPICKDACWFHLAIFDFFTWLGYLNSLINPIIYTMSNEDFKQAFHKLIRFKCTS
Description: (§5) Eltoprazine was tested for activity on the human serotonin 5-HT1a and 5-HT1b receptors using a GTPγS assay. Recombinant membranes obtained from CHO-K1 cells expressing either the 5-HT1a or 5-HT1b receptors were mixed with GDP (volume:volume) and incubated for at least 15 min on ice. In parallel, GTPγ[35S] was mixed with the beads (volume:volume) just before starting the reaction. The following reagents were successively added in the wells of an Optiplate (Perkin Elmer): 50 μl of test compound, 20 μl of the membranes:GDP mix, 10 μl of assay buffer (for agonist testing) and 20 μl of the GTPγ[35S]:beads mix. The plates were covered with a top seal, shaken on an orbital shaker for 2 min, and then incubated for 1 h at room temperature. Then the plates were centrifuged for 10 min at 2000 rpm, incubated at room temperature 1 h and counted for 1 min/well with a PerkinElmer TopCount reader.

[6] = biological target: T2, human serotonin 5-HT1a receptor (Homo sapiens, UniProt P08908); assay: as above; type: biochemical; settings: human recombinant cell line; FIG. 1
T2 construct: expressed in transfected cells; host or cells: CHO-K1
T2 sequence (P08908 1-422): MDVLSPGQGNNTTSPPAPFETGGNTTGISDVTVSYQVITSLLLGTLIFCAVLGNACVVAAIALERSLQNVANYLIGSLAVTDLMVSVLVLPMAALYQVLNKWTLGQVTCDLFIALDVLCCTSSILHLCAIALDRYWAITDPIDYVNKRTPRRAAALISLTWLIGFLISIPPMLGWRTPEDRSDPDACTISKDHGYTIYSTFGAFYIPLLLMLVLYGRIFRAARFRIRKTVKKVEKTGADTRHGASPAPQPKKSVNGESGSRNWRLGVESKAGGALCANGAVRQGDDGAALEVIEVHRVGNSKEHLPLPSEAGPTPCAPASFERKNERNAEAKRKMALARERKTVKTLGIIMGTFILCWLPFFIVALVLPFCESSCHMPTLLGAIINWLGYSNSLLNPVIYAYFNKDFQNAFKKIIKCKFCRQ
Description: as §5

patients = settings: clinical trials in aggressive behaviour (de Koning et al. 1994); cited from earlier work
[7] = biological target: T3, 5-HT2a recombinant receptor (Homo sapiens, UniProt P28223); assay: Aequorin cell line functional assay, agonist testing; type: cell-based; settings: FIG. 1
T3 construct: expressed in transfected cells
T3 sequence (P28223 whole entry): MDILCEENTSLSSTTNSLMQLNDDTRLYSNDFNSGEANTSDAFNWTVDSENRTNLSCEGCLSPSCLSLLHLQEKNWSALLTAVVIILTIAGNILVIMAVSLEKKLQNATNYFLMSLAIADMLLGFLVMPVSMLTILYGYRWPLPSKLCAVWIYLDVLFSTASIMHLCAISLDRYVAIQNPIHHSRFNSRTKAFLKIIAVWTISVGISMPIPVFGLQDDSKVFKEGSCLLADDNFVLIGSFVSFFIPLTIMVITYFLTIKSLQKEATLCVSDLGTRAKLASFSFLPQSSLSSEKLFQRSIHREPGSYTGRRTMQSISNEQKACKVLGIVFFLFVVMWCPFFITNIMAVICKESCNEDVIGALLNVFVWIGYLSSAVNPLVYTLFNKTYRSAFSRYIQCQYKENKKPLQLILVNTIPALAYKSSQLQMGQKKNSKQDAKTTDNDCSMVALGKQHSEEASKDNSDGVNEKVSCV
Description: (§6) Aequorin cell lines expressing the 5-HT2a, 5-HT2b and 5-HT2c non-edited (ne) recombinant receptors were used to evaluate the functional activity of eltoprazine. Aequorin cells grown 18 h prior to the test in media without antibiotics were detached by gentle flushing with PBS-EDTA (5 mM EDTA), recovered by centrifugation and resuspended in “assay buffer” (DMEM/HAM's F12 with HEPES+0.1% BSA protease free). Cells were incubated at room temperature for at least 4 h with Coelenterazine h (Molecular Probes). The reference agonist used were 5-HT and α-methyl-5-HT. For agonist testing, 50 μl of cell suspension were injected on 50 μl of test compound or reference agonist plated in a 96-well plate. The resulting emission of light was recorded using the Hamamatsu Functional Drug Screening System 6000 (FDSS 6000).

[8] = biological target: T4, 5-HT2c non-edited (ne) recombinant receptor (Homo sapiens, UniProt P28335); assay: as above; type: cell-based; settings: FIG. 1
T4 construct: expressed in transfected cells
T4 sequence (P28335 33-458): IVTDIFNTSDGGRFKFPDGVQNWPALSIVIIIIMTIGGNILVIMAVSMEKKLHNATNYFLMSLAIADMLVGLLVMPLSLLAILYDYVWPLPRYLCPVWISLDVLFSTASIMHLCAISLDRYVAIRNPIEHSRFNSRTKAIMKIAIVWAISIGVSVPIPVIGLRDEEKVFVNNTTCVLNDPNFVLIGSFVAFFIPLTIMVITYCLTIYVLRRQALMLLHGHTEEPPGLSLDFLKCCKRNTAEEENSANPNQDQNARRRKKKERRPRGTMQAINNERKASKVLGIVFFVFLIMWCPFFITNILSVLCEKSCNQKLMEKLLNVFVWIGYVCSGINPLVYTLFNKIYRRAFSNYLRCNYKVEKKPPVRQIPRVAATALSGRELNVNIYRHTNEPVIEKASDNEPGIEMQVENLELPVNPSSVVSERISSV
Description: as §6

Sprague-Dawley rats = assay: Effect of eltoprazine on weight gain and food intake of rats; type: in vivo, rat; settings: vs vehicle
Description: Experimentally naive adult male Sprague-Dawley rats (250-300 g; Janvier, France) were housed in groups of four per cage. Colony room temperature and humidity were maintained respectively at 20±1° C. and 60±3%. Food and water were available ad libitum and the animals were kept under an alternating 12 h/12 h day-night cycle (lights on at 07.00) for at least 6 days before the experiments were started. All experiments were conducted during the light period of the day-night cycle.
as §3, §4
Groups 3 and 4 were NOT injected at the weekend, and the weight and food intake were not recorded at the weekend.
Weight of animals and food intake were measured daily for two weeks (with exception of weekends).

Q: Which “pharmacological action on 5-HT1b receptor” value (5-HT1b receptor) does the source give for `c1cc2c(c(N3CCNCC3)c1)OCCO2` [eltoprazine, 1-(2,3-dihydro-1,4-benzodioxin-8-yl)piperazine] here?
A: The value was “agonistic effect”.

Q: What about the “effect on AIM scores” value [1] of the same compound?
A: Its value is “significantly reverses, in a dose-dependent manner”.

Q: And the “effect on 5-HT2c” value [2]?
A: The value was “antagonistic”.

Q: And the plasma levels ([3]; 1 mg/kg s.c. b.i.d. injections)?
A: Its plasma levels is “approx. 55 ng/ml”.

Q: And the “plasma levels (range)” value ([3]; 1 mg/kg s.c. b.i.d. injections)?
A: Its value is 48 to 65 ng/mL.

Q: What about the plasma levels ([3]; osmotic minipump 8 mg/kg/day) of the same compound?
A: Its plasma levels is “approx. 110 ng/ml”.

Q: What about the “plasma levels (range)” value ([3]; osmotic minipump 8 mg/kg/day) of the same compound?
A: The value was 86 to 143 ng/mL.

Q: And the “effect on turning behaviour induced by L-DOPA (antiparkinsonian effect of L-DOPA)” value [4]?
A: The value was “does not interfere with the antiparkinsonian effect of L-DOPA”.

Q: And the “pharmacological action on 5-HT1a receptor” value (5-HT1a receptor)?
A: The value was “agonistic effect”.

Q: And the “functional activity at 5-HT1b receptor” value [5]?
A: The value was “partial agonistic action”.

Q: What about the “functional activity at 5-HT1a receptor” value [6] of the same compound?
A: The value was “partial agonistic action”.

Q: And the clinical safety (patients)?
A: The clinical safety was “clinically safe”.

Q: What about the “functional activity at 5-HT2a receptor” value [7] of the same compound?
A: The value was “full agonist”.

Q: And the “functional activity at 5-HT2c receptor” value [8]?
A: Its value is “full agonist”.

Q: And the weight gain (Sprague-Dawley rats; 1 mg/kg s.c. b.i.d. injections, 2 weeks (not at weekends), FIG. 5A)?
A: Its weight gain is “delay in weight gain; also recorded: significant effect of treatment”.

Q: And the food intake (Sprague-Dawley rats; 1 mg/kg s.c. b.i.d. injections, 2 weeks (not at weekends), FIG. 5B)?
A: Its food intake is “reduced food intake; also recorded: significant effect of treatment”.

Q: What about the weight gain (Sprague-Dawley rats; osmotic minipump 8 mg/kg/day, 2 weeks, FIG. 4A) of the same compound?
A: The weight gain was “delay in weight gain; also recorded: significant effect of treatment”.

Q: And the food intake (Sprague-Dawley rats; osmotic minipump 8 mg/kg/day, 2 weeks, FIG. 4B)?
A: Its food intake is “reduced food intake; also recorded: significant effect of treatment”.
